Laboratory results from the NIST ThermoML archive (doi:10.1021/acs.jced.7b00176).
± gives the expanded uncertainty stated by the source.

Test: xn = mol fraction of the nth substance listed
Conditions: Liquid, Vibrating tube method

COCCOCCOC [2,5,8-trioxanonane] + CCCCO
Conditions	mass density [kg/m3]
283.55 K, 100000 kPa, x2 = 0.5469	947.45 ± 0.67
283.56 K, 40000 kPa, x2 = 0.5469	918.49 ± 0.64
283.56 K, 60000 kPa, x2 = 0.5469	928.98 ± 0.66
283.56 K, 80000 kPa, x2 = 0.5469	938.59 ± 0.66
283.58 K, 5000 kPa, x2 = 0.5469	897.03 ± 0.62
283.58 K, 10000 kPa, x2 = 0.5469	900.4 ± 0.62
283.58 K, 20000 kPa, x2 = 0.5469	906.81 ± 0.63
283.58 K, 30000 kPa, x2 = 0.5469	912.81 ± 0.63
283.59 K, 100 kPa, x2 = 0.5469	893.58 ± 0.63
283.59 K, 1000 kPa, x2 = 0.5469	894.22 ± 0.62
283.62 K, 100 kPa, x2 = 0.7308	866.59 ± 0.62
283.62 K, 1000 kPa, x2 = 0.7308	867.24 ± 0.61
283.62 K, 5000 kPa, x2 = 0.7308	870.06 ± 0.62
283.62 K, 10000 kPa, x2 = 0.7308	873.45 ± 0.62
283.62 K, 20000 kPa, x2 = 0.7308	879.83 ± 0.63
283.62 K, 30000 kPa, x2 = 0.7308	885.83 ± 0.64
283.62 K, 40000 kPa, x2 = 0.7308	891.47 ± 0.65
283.62 K, 60000 kPa, x2 = 0.7308	901.94 ± 0.68
283.62 K, 80000 kPa, x2 = 0.7308	911.46 ± 0.7
283.62 K, 100000 kPa, x2 = 0.7308	920.22 ± 0.71
283.65 K, 100 kPa, x2 = 0.3116	922.56 ± 0.64
283.65 K, 5000 kPa, x2 = 0.3116	926 ± 0.61
283.65 K, 20000 kPa, x2 = 0.3116	935.72 ± 0.62
283.65 K, 30000 kPa, x2 = 0.3116	941.81 ± 0.62
283.65 K, 40000 kPa, x2 = 0.3116	947.48 ± 0.62
283.65 K, 60000 kPa, x2 = 0.3116	958.06 ± 0.63
283.65 K, 80000 kPa, x2 = 0.3116	967.62 ± 0.63
283.65 K, 100000 kPa, x2 = 0.3116	976.51 ± 0.63
283.66 K, 1000 kPa, x2 = 0.3116	923.21 ± 0.62
283.66 K, 10000 kPa, x2 = 0.3116	929.34 ± 0.61
283.66 K, 20000 kPa, x2 = 0.8787	855.19 ± 0.64
283.66 K, 30000 kPa, x2 = 0.8787	861.18 ± 0.65
283.66 K, 40000 kPa, x2 = 0.8787	866.81 ± 0.67
283.66 K, 60000 kPa, x2 = 0.8787	877.23 ± 0.71
283.66 K, 80000 kPa, x2 = 0.8787	886.62 ± 0.74
283.66 K, 100000 kPa, x2 = 0.8787	895.34 ± 0.77
283.67 K, 100 kPa, x2 = 0.8787	841.93 ± 0.63
283.67 K, 1000 kPa, x2 = 0.8787	842.59 ± 0.62
283.67 K, 5000 kPa, x2 = 0.8787	845.4 ± 0.62
283.67 K, 10000 kPa, x2 = 0.8787	848.78 ± 0.62
283.67 K, 40000 kPa, x2 = 0	978.49 ± 0.61
283.67 K, 60000 kPa, x2 = 0	989.12 ± 0.62
283.67 K, 80000 kPa, x2 = 0	998.75 ± 0.61
283.67 K, 100000 kPa, x2 = 0	1007.71 ± 0.62
283.68 K, 10000 kPa, x2 = 0	960.29 ± 0.61
283.68 K, 20000 kPa, x2 = 0	966.68 ± 0.61
283.68 K, 30000 kPa, x2 = 0	972.8 ± 0.61
283.69 K, 100 kPa, x2 = 0	953.48 ± 0.61
283.69 K, 1000 kPa, x2 = 0	954.15 ± 0.61
283.69 K, 5000 kPa, x2 = 0	956.94 ± 0.61
303.46 K, 80000 kPa, x2 = 0.8787	874 ± 0.76
303.46 K, 100000 kPa, x2 = 0.8787	883.23 ± 0.8
303.47 K, 100 kPa, x2 = 0	933.69 ± 0.61
303.47 K, 1000 kPa, x2 = 0	934.43 ± 0.61
303.47 K, 30000 kPa, x2 = 0.8787	846.7 ± 0.66
303.47 K, 60000 kPa, x2 = 0.8787	863.93 ± 0.73
303.48 K, 5000 kPa, x2 = 0	937.55 ± 0.61
303.48 K, 10000 kPa, x2 = 0	941.31 ± 0.61
303.48 K, 10000 kPa, x2 = 0.8787	833.12 ± 0.63
303.48 K, 20000 kPa, x2 = 0.8787	840.14 ± 0.64
303.48 K, 40000 kPa, x2 = 0.8787	852.78 ± 0.68
303.49 K, 100 kPa, x2 = 0.8787	825.51 ± 0.62
303.49 K, 5000 kPa, x2 = 0.8787	829.38 ± 0.62
303.49 K, 20000 kPa, x2 = 0	948.42 ± 0.63
303.49 K, 30000 kPa, x2 = 0	955.17 ± 0.63
303.49 K, 40000 kPa, x2 = 0	961.41 ± 0.63
303.49 K, 60000 kPa, x2 = 0	973.02 ± 0.62
303.5 K, 1000 kPa, x2 = 0.7308	850.15 ± 0.61
303.5 K, 1000 kPa, x2 = 0.8787	826.23 ± 0.61
303.5 K, 5000 kPa, x2 = 0.7308	853.29 ± 0.62
303.5 K, 10000 kPa, x2 = 0.7308	857.01 ± 0.62
303.5 K, 20000 kPa, x2 = 0.7308	864.06 ± 0.64
303.5 K, 30000 kPa, x2 = 0.7308	870.65 ± 0.65
303.5 K, 40000 kPa, x2 = 0.5469	902.93 ± 0.65
303.5 K, 40000 kPa, x2 = 0.7308	876.8 ± 0.66
303.5 K, 60000 kPa, x2 = 0.5469	914.29 ± 0.67
303.5 K, 60000 kPa, x2 = 0.7308	888.07 ± 0.7
303.5 K, 79990 kPa, x2 = 0.7308	898.18 ± 0.72
303.5 K, 80000 kPa, x2 = 0	983.33 ± 0.62
303.5 K, 80000 kPa, x2 = 0.5469	924.52 ± 0.68
303.5 K, 100000 kPa, x2 = 0	992.97 ± 0.62
303.5 K, 100000 kPa, x2 = 0.5469	933.93 ± 0.69
303.5 K, 100000 kPa, x2 = 0.7308	907.47 ± 0.74
303.51 K, 100 kPa, x2 = 0.5469	875.36 ± 0.62
303.51 K, 100 kPa, x2 = 0.7308	849.42 ± 0.62
303.51 K, 1000 kPa, x2 = 0.5469	876.1 ± 0.61
303.51 K, 10000 kPa, x2 = 0.5469	883.02 ± 0.62
303.51 K, 20000 kPa, x2 = 0.5469	890.1 ± 0.63
303.51 K, 30000 kPa, x2 = 0.5469	896.73 ± 0.64
303.52 K, 5000 kPa, x2 = 0.5469	879.25 ± 0.62
303.55 K, 100000 kPa, x2 = 0.3116	962.26 ± 0.64
303.56 K, 10000 kPa, x2 = 0.3116	911.05 ± 0.62
303.56 K, 20000 kPa, x2 = 0.3116	918.17 ± 0.62
303.56 K, 30000 kPa, x2 = 0.3116	924.8 ± 0.63
303.56 K, 40000 kPa, x2 = 0.3116	931.1 ± 0.63
303.56 K, 60000 kPa, x2 = 0.3116	942.54 ± 0.65
303.56 K, 80000 kPa, x2 = 0.3116	952.82 ± 0.65
303.57 K, 100 kPa, x2 = 0.3116	903.4 ± 0.62
303.57 K, 1000 kPa, x2 = 0.3116	904.14 ± 0.61
303.57 K, 5000 kPa, x2 = 0.3116	907.29 ± 0.61
322.62 K, 100 kPa, x2 = 0	914.41 ± 0.61
322.62 K, 1000 kPa, x2 = 0	915.3 ± 0.61
322.62 K, 5000 kPa, x2 = 0	918.77 ± 0.61
322.62 K, 10000 kPa, x2 = 0	923.02 ± 0.61
322.62 K, 20000 kPa, x2 = 0	930.99 ± 0.62
322.62 K, 30000 kPa, x2 = 0	938.31 ± 0.62
322.62 K, 40000 kPa, x2 = 0	945.16 ± 0.62
322.62 K, 60000 kPa, x2 = 0	957.74 ± 0.64
322.62 K, 80000 kPa, x2 = 0	968.98 ± 0.63
322.62 K, 100000 kPa, x2 = 0	979.2 ± 0.63
323.22 K, 100 kPa, x2 = 0.5469	857.29 ± 0.63
323.22 K, 1000 kPa, x2 = 0.5469	858.13 ± 0.61
323.22 K, 5000 kPa, x2 = 0.5469	861.6 ± 0.62
323.23 K, 10000 kPa, x2 = 0.5469	865.79 ± 0.62
323.23 K, 20000 kPa, x2 = 0.5469	873.63 ± 0.64
323.23 K, 30000 kPa, x2 = 0.5469	880.92 ± 0.65
323.23 K, 40000 kPa, x2 = 0.5469	887.67 ± 0.66
323.23 K, 60000 kPa, x2 = 0.5469	899.96 ± 0.69
323.24 K, 80000 kPa, x2 = 0.5469	911.05 ± 0.7
323.24 K, 100000 kPa, x2 = 0.5469	920.96 ± 0.71
323.26 K, 100 kPa, x2 = 0.7308	831.9 ± 0.62
323.26 K, 1000 kPa, x2 = 0.7308	832.7 ± 0.61
323.26 K, 5000 kPa, x2 = 0.7308	836.19 ± 0.62
323.26 K, 10000 kPa, x2 = 0.7308	840.37 ± 0.63
323.26 K, 20000 kPa, x2 = 0.7308	848.19 ± 0.64
